In US11148990B2 (JOST CHEMICAL CO., priority 2019, dated 2021):

Tests used:
Assay type in all cases: physicochemical
[1] = Compressibility: tablets on instrumented Carver press, no excipients, three-point bend stress; conditions: current experimental conditions
Protocol: Compressibility of a second sample of magnesium citrate glycinate was evaluated using an instrumented Carver press. Approximately 1.6 g, 5 mm thick tablets were compressed using the 0.4″×0.9″ rectangular tooling. No excipients were used. The sides of the tooling were slightly dusted with magnesium stearate in order to facilitate tablet ejection and eliminate sticking. The tablets were subjected to a three-point bend stress using a TA.XT2-Plus texture analyzer (from Stable Micro Systems of Surrey, England). Flexural strength and young modulus of the compact were measured. In addition, compact density was calculated from the weight and size measurements of the tablets.
An attempt was made to compare compressibility of magnesium citrate glycinate with those of individual salts, magnesium citrate tribasic and magnesium bis-glycinate.

[2] = Aqueous stability of 10% w/w solution standing for 24 hours, visual inspection; conditions: 10% w/w solution in water
[3] = Apparent density measurement
Protocol: In addition, particle size distribution and apparent density of di-magnesium citrate glycinate co-salt were measured.

Structure (SMILES) | Compressibility, tablet formation [1] | Aqueous stability, change of clear and colorless solution [2] | Apparent density [3] [kg/m^3]
NCC(=O)[O-].NCC(=O)[O-].[Mg+2] [magnesium bis-glycinate] | no cohesive tablets were obtained | – | –
NCC(=O)[O-].O=C([O-])CC(O)(CC(=O)[O-])C(=O)[O-].[Mg+2].[Mg+2] [magnesium citrate glycinate co-salt] | – | no change | 1740
O=C([O-])CC(O)(CC(=O)[O-])C(=O)[O-].O=C([O-])CC(O)(CC(=O)[O-])C(=O)[O-].[Mg+2].[Mg+2].[Mg+2] [magnesium citrate tribasic] | no cohesive tablets were obtained | – | –
